Values after ≈ are worked out from the molar mass of the structure shown. Read-outs that look alike come from different tables or passages of the source. Positions of bridges follow the written chain, without caps; N, C: chain ends. Residues, ends and D or L forms follow the SMILES beside them.
Assays:
[1] = test system: S. pneumoniae (30 clinical isolates); assay type: cell-based, Streptococcus pneumoniae; conditions: for MIC S. pneumoniae (30 clinical isolates): broth microdilution, CAMHB, 20-24hr, 37°C, 5% CO2, lowest concentration that completely inhibits growth
Excerpt: (§1) Thirty (30) Pneumococcal clinical isolates were obtained from University of Malaya Medical Centre (UMMC). For broad-spectrum activity of AMPs, E. coli ATCC 25922, Staphylococcus aureus ATCC 25923, P. aeruginosa ATCC 15442, Acinetobacter baumanii ATCC 15308, and one clinical isolate of each methicillin resistant S. aureus (MRSA), […], citrobacter spp., and K. pneumoniae were used in this study.
(§2) The minimum inhibitory concentration (MIC) of the peptides against 30 pneumococcal isolates was determined by broth microdilution protocol as indicated by the CLSI guidelines (Clinical and Laboratory Standards Institute). Briefly, bacterial strains were grown for 18–24 hr at 37°C under 5% CO2. Direct suspension of the colonies were made in cationically-adjusted Müeller-Hinton broth (CAMHB) and adjusted to OD 625 0.08–0.1 which corresponds to 1 ~ 2 x10^8 CFU/ml followed by serial ten-fold dilutions to give 1x10^6 CFU/ml. 50μl of bacterial suspension were added to 96-well round bottom microtiter plates containing equal volume of peptides at different concentrations (1.95, 3.90, 7.81, 15.62, 31.25, 62.5, 125, 250μg/ml) and the 96-well plates were incubated for 20-24hr at 37°C in the presence of 5% CO2.

[2] = test system: Acinetobacter baumanii ATCC 15308; assay type: cell-based
Excerpt: as §1, §2

E. coli ATCC 25922 = assay type: cell-based
Excerpt: as §1, §2

Enterococcus cloacae = assay type: cell-based
Excerpt: as §1, §2

K. pneumoniae = assay type: cell-based
Excerpt: as §1, §2

[3] = test system: Methicillin resistant S. aureus (MRSA); assay type: cell-based
Excerpt: as §1, §2

P. aeruginosa ATCC 15442 = assay type: cell-based
Excerpt: as §1, §2

citrobacter spp = assay type: cell-based
Excerpt: as §1, §2

human erythrocytes = assay: Hemolytic activity assay; assay type: cell-based; conditions: 250μg/ml; 4% human RBCs in PBS, 1hr, 37°C, absorbance 560 nm, relative to 0.1% Triton X-100, triplicate
Description: The hemolytic activity of the peptides was tested using human erythrocytes as described previously. Human red blood cells (RBCs) were freshly collected from a healthy donor, washed three times using sterile phosphate buffered saline (PBS) and centrifuged at 2000 rpm for 10 min until the upper solution became clear. RBCs were diluted to a final concentration of 4%, and 100μl of peptides at different concentrations (1.95 to 250μg/ml) were mixed with equivalent volumes of erythrocyte suspensions. After 1hr of incubation at 37°C, the cells were centrifuged at 2000 rpm for 10 min and the absorbance of the supernatants was measured at 560 nm using GloMax Multi Detection System (Promega, USA). PBS and 0.1% Triton X-100 were used as negative and positive controls, respectively. The assay was done in triplicate, and percentage of hemolysis was calculated using the following formula: 100% hemolysis = 100 (Apeptide-APBS) / (Atriton-APBS). We obtained the blood from the Blood Bank of University […] Medical Centre and ethical clearance for this work was approved by the Scientific and Ethical Committee of UMMC (Ethics Committee/IRB Reference No: 321.4). Written informed consent was obtained for each collection.

S. aureus ATCC 25923 = assay type: cell-based, Staphylococcus aureus
Excerpt: as §1, §2

E. coli = conditions: cited from earlier work
S. aureus = conditions: cited from earlier work
[4] = test system: NL-20 normal lung cell line; assay type: cell-based, human
Description: (§3) CellTiter 96 AQueous Non-Radioactive Cell Proliferation assay (Promega, USA) was used to evaluate the cytotoxic effects of peptides. WRL-68 (ATCC CL-48) and NL-20 (ATCC CRL2503) cell lines were purchased from American Type Culture Collection (ATCC, USA). The cell lines were grown in Dulbecco's modified Eagle's medium (DMEM) and Ham’s F-12 medium, respectively. Cells were supplemented with 10% (v/v) fetal bovine serum (FBS) in T75 flasks and incubated at 37°C in the presence of 5% CO2. Cells were seeded into 96-well plates at a density of 1×10^4 and 3×10^4 cells per well, respectively. Peptides were added to the wells at different concentrations (1.95, 3.90, 7.81, 15.62, 31.25, 62.5, 125, and 250μg) and plates were incubated at 37°C under 5% CO2 for 24, 48, and 72 hrs. Medium with and without cells was used as positive and negative controls, respectively. After incubation, 20μl of the reagent were added to each well and incubated for 1 hr at 37°C under 5% CO2. Metabolically active cells convert the yellow MTS to purple formazan, allowing for monitoring of the reaction. The absorbance was monitored at 490 nm using GloMax Multi Detection System (Promega, USA). The percentage of viable cells was calculated according to the following formula: 100 (AT-AB/AC-AB), where AT and AC are the absorbance of treated and control cells (100% survival). AB is the absorbance of medium alone. The assay was done in triplicate.

[5] = test system: WRL-68 normal liver cell line; assay type: cell-based, human
Description: as §3

Streptococcus pneumoniae = assay: Time killing assay; assay type: cell-based; conditions: 1×MIC, MHB, 37°C, sampled every 30 min to 240 min, triplicate
Description: The bactericidal activities of peptides were performed as described previously. […] 10μl of bacterial suspensions were removed at various time intervals (30, 60, 90, 120, 150, 180, 210, and 240 min), serially diluted in PBS and plated onto Columbia agar with 5% sheep blood for 20-24hr at 37°C in the presence of 5% CO2 to obtain viable colonies. Erythromycin and ceftriaxone were used as positive control and the assay was performed in triplicate.

[6] = numbers in parentheses are micromolar concentrations, unit of the source corrected
[7] = numbers in parentheses are micromolar concentrations

CC[C@H](C)[C@H](N)C(=O)N[C@@H](CC(C)C)C(=O)N1CCC[C@H]1C(=O)N[C@@H](Cc1c[nH]c2ccccc12)C(=O)N[C@@H](CCCCN)C(=O)N[C@@H](Cc1c[nH]c2ccccc12)C(=O)N1CCC[C@H]1C(=O)N[C@@H](Cc1c[nH]c2ccccc12)C(=O)N[C@@H](Cc1c[nH]c2ccccc12)C(=O)N1CCC[C@H]1C(=O)N[C@@H](Cc1c[nH]c2ccccc12)C(=O)N[C@@H](CCCNC(=N)N)C(=O)N[C@@H](CCCNC(=N)N)C(N)=O [Indolicidin, reference compound]
MIC S. pneumoniae (30 clinical isolates), in parentheses [1, 6]: 15.6 to 31.2 µg/mL (≈ 8.19 to 16.4 µM) | MIC Acinetobacter baumanii ATCC 15308, in parentheses [2, 7]: >250 (131) micromolar | MIC E. coli ATCC 25922, in parentheses (E. coli ATCC 25922; [6]): 31.2 µg/mL (≈ 16.4 µM) | MIC Enterococcus cloacae, in parentheses (Enterococcus cloacae; [7]): >250 (>131) micromolar | MIC K. pneumoniae, in parentheses (K. pneumoniae; [7]): >250 (>131) micromolar | MIC MRSA, in parentheses [3, 6]: 31.2 µg/mL (≈ 16.4 µM) | MIC P. aeruginosa ATCC 15442, in parentheses (P. aeruginosa ATCC 15442; [6]): 31.2 µg/mL (≈ 16.4 µM) | MIC citrobacter spp, in parentheses (citrobacter spp; [7]): >250 (>131) micromolar | hemolytic activity (human erythrocytes): 56.98%

CC[C@H](C)[C@H](NC(=O)[C@H](CCSC)NC(=O)[C@H](C)NC(=O)[C@@H]1CCCN1C(=O)[C@@H](NC(=O)[C@@H](NC(=O)[C@H](CCCCN)NC(=O)[C@@H](NC(=O)[C@H](CC(C)C)NC(=O)CNC(=O)CNC(=O)[C@H](CC(C)C)NC(=O)[C@@H](N)Cc1ccccc1)[C@@H](C)CC)[C@@H](C)CC)C(C)C)C(=O)N[C@H]1CSSC[C@@H](C(=O)O)NC(=O)[C@H](CCCCN)NC(=O)[C@H](CCCCN)NC(=O)[C@H]([C@@H](C)O)NC(=O)[C@H](C(C)C)NC(=O)[C@H](C)NC1=O [Ranalexin, reference compound] (H-FLGGLIKIVPAMICAVTKKC-OH; disulfide 14-20; N-terminus assumed)
MIC S. pneumoniae (30 clinical isolates), in parentheses ([1]; 30 clinical isolates): 62.5 µg/mL (≈ 29.7 µM) | MIC Acinetobacter baumanii ATCC 15308, in parentheses ([2]; ATCC 15308): >250 (>118) micromolar | MIC E. coli ATCC 25922, in parentheses (E. coli ATCC 25922; ATCC 25922): 62.5 µg/mL (≈ 29.7 µM) | MIC Enterococcus cloacae, in parentheses (Enterococcus cloacae): >250 (>118) micromolar | MIC K. pneumoniae, in parentheses (K. pneumoniae): >250 (>118) micromolar | MIC MRSA, in parentheses ([3]; Methicillin resistant): 31.2 µg/mL (≈ 14.9 µM) | MIC P. aeruginosa ATCC 15442, in parentheses (P. aeruginosa ATCC 15442; ATCC 15442): 125 µg/mL (≈ 59.4 µM) | MIC citrobacter spp, in parentheses (citrobacter spp): >250 (>118) micromolar | MIC S. aureus ATCC 25923, in parentheses (S. aureus ATCC 25923; ATCC 25923): 31.2 µg/mL (≈ 14.9 µM) | MIC against E. coli (E. coli): 32 µg/mL (≈ 15.2 µM) | MIC against S. aureus (S. aureus): 4 µg/mL (≈ 1.9 µM)

FLGGLIKWKWPWWPWRR-NH2 [RN7-IN10, hybrid peptide of ranalexin and indolicidin]
MIC S. pneumoniae (30 clinical isolates) [1]: 7.81 to 15.62 µg/mL | MIC S. pneumoniae (30 clinical isolates), in parentheses [1, 6]: 7.81 to 15.6 µg/mL | MIC Acinetobacter baumanii ATCC 15308, in parentheses [2, 7]: 31.25 (13.51) micromolar | MIC E. coli ATCC 25922, in parentheses (E. coli ATCC 25922; [6]): 7.81 µg/mL | MIC Enterococcus cloacae, in parentheses (Enterococcus cloacae; [7]): >250 (>108) micromolar | MIC K. pneumoniae, in parentheses (K. pneumoniae; [7]): >250 (>108) micromolar | MIC MRSA, in parentheses [3, 6]: 7.81 µg/mL | MIC P. aeruginosa ATCC 15442, in parentheses (P. aeruginosa ATCC 15442; [6]): 31.2 µg/mL | MIC citrobacter spp, in parentheses (citrobacter spp; [7]): >250 (>108) micromolar | MIC S. aureus ATCC 25923, in parentheses (S. aureus ATCC 25923; [6]): 7.81 µg/mL | concentration at which toxic, NL-20 [4]: ≥ 125 µg/mL | concentration at which toxic, WRL-68 [5]: ≥ 62.5 µg/mL | time to completely kill 10^6 CFU/ml of S. pneumoniae (Streptococcus pneumoniae): 30 min

FLGGLIKWPWWPWRR-NH2 [RN7-IN8, hybrid peptide of ranalexin and indolicidin]
MIC S. pneumoniae (30 clinical isolates) [1]: 7.81 to 15.62 µg/mL | MIC S. pneumoniae (30 clinical isolates), in parentheses [1, 6]: 7.81 to 15.6 µg/mL | MIC Acinetobacter baumanii ATCC 15308, in parentheses [2, 7]: 62.5 (31.3) micromolar | MIC E. coli ATCC 25922, in parentheses (E. coli ATCC 25922; [6]): 7.81 µg/mL | MIC Enterococcus cloacae, in parentheses (Enterococcus cloacae; [7]): >250 (>125) micromolar | MIC K. pneumoniae, in parentheses (K. pneumoniae; [7]): >250 (>125) micromolar | MIC MRSA, in parentheses [3, 6]: 7.81 µg/mL | MIC P. aeruginosa ATCC 15442, in parentheses (P. aeruginosa ATCC 15442; [6]): 31.2 µg/mL | MIC citrobacter spp, in parentheses (citrobacter spp; [7]): >250 (>125) micromolar | MIC S. aureus ATCC 25923, in parentheses (S. aureus ATCC 25923; [6]): 7.81 µg/mL | concentration at which toxic, NL-20 [4]: ≥ 125 µg/mL | concentration at which toxic, WRL-68 [5]: ≥ 62.5 µg/mL | time to completely kill 10^6 CFU/ml of S. pneumoniae (Streptococcus pneumoniae): 120 min

FLGGLIKWWPWRR-NH2 [RN7-IN6, hybrid peptide of ranalexin and indolicidin]
MIC S. pneumoniae (30 clinical isolates) [1]: 7.81 to 15.62 µg/mL | MIC S. pneumoniae (30 clinical isolates), in parentheses [1, 6]: 7.81 to 15.6 µg/mL | MIC Acinetobacter baumanii ATCC 15308, in parentheses [2, 7]: 31.25 (18.23) micromolar | MIC E. coli ATCC 25922, in parentheses (E. coli ATCC 25922; [6]): 7.81 µg/mL | MIC Enterococcus cloacae, in parentheses (Enterococcus cloacae; [7]): >250 (>145.84) micromolar | MIC K. pneumoniae, in parentheses (K. pneumoniae; [7]): >250 (>145.84) micromolar | MIC MRSA, in parentheses [3, 6]: 7.81 µg/mL | MIC P. aeruginosa ATCC 15442, in parentheses (P. aeruginosa ATCC 15442; [6]): 31.2 µg/mL | MIC citrobacter spp, in parentheses (citrobacter spp; [7]): >250 (>145.84) micromolar | MIC S. aureus ATCC 25923, in parentheses (S. aureus ATCC 25923; [6]): 7.81 µg/mL | concentration at which toxic, NL-20 [4]: ≥ 125 µg/mL | concentration at which toxic, WRL-68 [5]: ≥ 62.5 µg/mL | time to completely kill 10^6 CFU/ml of S. pneumoniae (Streptococcus pneumoniae): 240 min

— publication PMC4457802 (PLoS ONE, 2015)
